Data published in the NIST ThermoML archive (doi:10.1016/j.jct.2009.05.006).

What was measured:
[1] = excess molar enthalpy (molar enthalpy of mixing); xn = mol fraction of the nth substance listed; details: 298.15 K, 101 kPa, Liquid, Calvet calorimetry
[2] = xn = mol fraction of the nth substance listed; details: 298.15 K, 101 kPa, Liquid, Vibrating tube method

BrCCCCCBr [1,5-dibromopentane] + CCCCOC(C)=O
[1]
Details | excess molar enthalpy [kcal/mol]
x2 = 0.0669 | 0.00669
x2 = 0.1499 | 0.00956
x2 = 0.2436 | 0.01
x2 = 0.3318 | 0.00837
x2 = 0.4096 | 0.00454
x2 = 0.4762 | 0.000239
x2 = 0.5331 | -0.00478
x2 = 0.5566 | -0.00765
x2 = 0.5827 | -0.00932
x2 = 0.6168 | -0.0124
x2 = 0.6927 | -0.0151
x2 = 0.7844 | -0.0141
x2 = 0.8533 | -0.0105
x2 = 0.9377 | -0.00574

CCCCOC(=O)CCC [butyl butanoate] + BrCCBr
[1]
Details | excess molar enthalpy [kcal/mol]
x1 = 0.0408 | 0.00621
x1 = 0.0978 | 0.0115
x1 = 0.1663 | 0.0139
x1 = 0.2361 | 0.0122
x1 = 0.2997 | 0.00765
x1 = 0.3488 | 0.00359
x1 = 0.4085 | -0.000478
x1 = 0.4847 | -0.00645
x1 = 0.5816 | -0.0115
x1 = 0.7159 | -0.0129
x1 = 0.8632 | -0.00884
x1 = 0.9347 | -0.00526

BrCCCCCCBr [1,6-dibromohexane] + CCCCOC(C)=O
Details | excess molar enthalpy [kcal/mol] | mass density [kg/m3]
[1], x2 = 0.0742 | 0.00813 | –
[1], x2 = 0.1664 | 0.0139 | –
[1], x2 = 0.27 | 0.0179 | –
[1], x2 = 0.3625 | 0.0179 | –
[1], x2 = 0.4313 | 0.0151 | –
[1], x2 = 0.4863 | 0.012 | –
[1], x2 = 0.5098 | 0.00956 | –
[1], x2 = 0.5385 | 0.00741 | –
[1], x2 = 0.5631 | 0.00406 | –
[1], x2 = 0.5869 | 0.00167 | –
[1], x2 = 0.6272 | -0.00239 | –
[1], x2 = 0.6989 | -0.00526 | –
[1], x2 = 0.7827 | -0.00621 | –
[1], x2 = 0.8669 | -0.00478 | –
[1], x2 = 0.9422 | -0.00239 | –
[2], x2 = 0.1369 | – | 1513.56
[2], x2 = 0.2111 | – | 1464.63
[2], x2 = 0.2634 | – | 1429.52
[2], x2 = 0.3292 | – | 1384.72
[2], x2 = 0.3855 | – | 1345.64
[2], x2 = 0.4456 | – | 1303.3
[2], x2 = 0.5046 | – | 1260.95
[2], x2 = 0.5622 | – | 1219.05
[2], x2 = 0.6175 | – | 1178.12
[2], x2 = 0.7334 | – | 1090.14
[2], x2 = 0.7855 | – | 1049.66
[2], x2 = 0.8433 | – | 1003.91
[2], x2 = 0.8909 | – | 965.75
[2], x2 = 0.9462 | – | 920.67
